# Experimental data: patent publication US7572885B2, “Isolated GAGE-7B and 8 proteins” (Ludwig Institute For Cancer Research, priority 1998, dated 2009)
# Key:
# [1] = test system: GAGE 1, 2, and 8 expression in sarcoma and melanoma cell lines; assay: Induction of GAGE gene expression by demethylation, RT-PCR with SEQ ID NOS: 4 and 5; assay type: cell-based; conditions: 1 uM, 72 hours in culture medium
# Method: (§1) These experiments were designed to determine expression of GAGE genes in various cell and tumor types. For each type of cell assayed, total RNA was extracted, using standard guanidium-isothiocyanate procedures, as taught by e.g., Davis, et al. in Basic Methods In Molecular Biology, Elsevier Science Publishing Co., New York (1986), pp. 130-135. Reverse transcription was carried out on 2 ug samples of the total RNA, using 2 mM of Oligo(dT)15 primer, in a reaction volume of 20 ul. Portions of the resulting cDNA ( 1/20 of the product), were used in the PCR amplification. In order to amplify GAGE-1, 2, and 8, the primers used were:
# (§2) For GAGE-3, 4, 5, 6; & 7B, the primers were: • 5′- GACCAAGGCG CTATGTAC-3′ • (sense, SEQ ID NO: 6) and SEQ ID NO: 5 For all amplifications, the denaturation step was 94° C. for 5 minutes, then 30 cycles of amplification (1 minute at 94° C., 2 minutes at 58° C., 2 minutes at 72° C.), then a final extension step of 72° C. for 15 minutes. The products were analyzed by agarose gel electrophoresis, with RNA integrity being checked by reverse transcription and amplification of β-actin mRNA.
# (§3) In order to determine if expression of GAGE genes could be induced by demethylation, samples of cultured tumor and normal cells were incubated for 72 hours in culture medium containing 1 uM 5-aza-2′-deoxycytidine. SEQ ID NOS: 4 and 5, supra, were used in the amplification protocol.
# [2] = test system: GAGE genes expression in PHA stimulated PBLs; assay: Induction of GAGE gene expression by demethylation in PHA stimulated PBLs; assay type: cell-based; conditions: 1 uM, 72 hours in culture medium
# Method: as §1, §2, §3
compound,measurement,setting,value
Nc1ncn([C@H]2C[C@H](O)[C@@H](CO)O2)c(=O)n1 [5-aza-2′-deoxycytidine],"expression of GAGE 1, 2, and 8 after demethylating treatment",[1],induced
same,expression of all GAGE genes following treatment,[2],expressed
